{"source": "paper PMC2488398", "about": "“Concurrence of Danish Dementia and Cataract: Insights from the Interactions of Dementia Associated Peptides with Eye Lens α-Crystallin” (PLoS ONE, 2008)", "test_system": "rat lens", "assay": "Lens protein content in peptide-treated rat lenses", "type": "cell-based, Wistar rat", "settings": "10 µM peptide, 96 h", "protocol": "Eyes were enucleated from 4 months old Wistar rats, obtained from National Center for Laboratory Animal Services, National Institute of Nutrition, Hyderabad immediately after sacrifice by cervical dislocation. Animal care and protocols were in accordance with and approved by Institutional Animal Ethics Committee. Lenses were dissected from the eyes by anterior approach. Each isolated lens was incubated in 2 ml of modified of TC-199 (Sigma) medium with antibiotics. Osmolarity of the medium was adjusted to 295 milli osmomoles using an osmometer (Micro Osmometer; Model-210, Fiske Associates, Norwood, MA, USA). Lenses were cultured as described previously, [33]. Lenses were incubated at 37°C under 95% air and 5% CO2 in the absence or presence of the various dementia associated peptides dissolved in DMSO for a period of 96 h. All the reagents/chemicals used for lens organ culture were filtered through 0.2 µm Millipore disc filters. Final concentration of a given dementia associated peptides in the culture medium was kept at 10 µM. Medium was changed every 24 h. At the end of incubation, lenses were kept on a grid (12/cm) for assessing the transparency by placing them above a light source.\nLenses were homogenized in 10 vol. of 0.05 M Tris buffer (pH 8.0), containing 0.1 M NaCl and 0.02% sodium azide. The homogenate was centrifuged at 15 000 g for 30 min at 4°C and the resulting supernatant was collected (soluble fraction). The pellet was washed thrice and constituted in the same buffer (insoluble fraction). Protein content in soluble and insoluble fractions was estimated by Lowry's method.", "data": [{"substance": "Aβ (1–42): column label of Table 1; text gives the same value for Aβ-40", "values": [{"measurement": "Insoluble protein", "setting": "15 000 g pellet, Lowry's method, Control 95", "value": 145, "unit": "mg/g lens"}, {"measurement": "Soluble protein", "setting": "15 000 g supernatant, Lowry's method, Control 421", "value": 310, "unit": "mg/g lens"}, {"measurement": "Total protein", "setting": "Lowry's method, Control 518", "value": 464, "unit": "mg/g lens"}, {"measurement": "% Soluble protein", "setting": "in relation to the amount of total protein, Control 81", "value": 67, "unit": "%"}]}]}
